Assay results taken from patent US8912169B2, “Beta-lactamase inhibitors” (VenatoRx Pharmaceuticals, Inc., priority 2012, dated 2014).

What was measured:
Assay type in all cases: biochemical
SHV-5 = target: T1, SHV-5 (Klebsiella pneumoniae, UniProt P0A3M1); assay: β-lactamase enzyme inhibition, SHV-5
T1 construct: made in house; host or cells: E. coli BL21(DE3)
Experimental: (§1) For SHV-5, Kpc-2, p99AmpC and OXA-1 β-lactamases, E. coli BL21(DE3) bacterial cells carrying expression plasmids (expressed as native untagged proteins) for the individual β-lactamases were grown in 1 L of Superbroth (Teknova Inc. Hollister, Calif.) supplemented with 100 μg/mlkanamycin selection and 1×5052 (0.5% glycerol, 0.05% glucose and 0.2% α-lactose) at 35° C. for 18-20 hours. Cells were harvested by centrifugation (4,000×g, 4° C., 20 min), resuspended in 50 ml of 10 mM HEPES pH 7.5 ( 1/20 of the initial volume). The cells were lysed by sonication (5 pulses of 45 seconds) at 45 W on ice. The lysates were clarified by centrifugation at 10,000×g for 40 minutes at 4° C. Samples were diluted 5-fold in 50 mM sodium acetate pH 5.0, stored overnight at 4° C., after which they were centrifuged at 10,000×g for 30 minutes to clarify, and filtered through 0.45 μm filters. The samples were loaded onto a 5 ml Capto S sepharose cation exchange column (GE Healthcare) pre-equilibrated with 50 mM sodium acetate pH 5.0. The column was washed with 5 column volumes of 50 mM sodium acetate pH 5.0 to wash out unbound protein and a linear gradient of NaCl (0 to 500 mM) was used to elute the protein (over 16 CV) from the column. Fractions were assayed for β-lactamase activity using Centa (Calbiochem, Gibbstown, N.J.) or Nitrocefin (EMD Millipore chemicals, Darmstadt, Germany) as a reporter β-lactamase substrate for activity in the isolated fractions. Active fractions were pooled, concentrated and further purified by gel filtration chromatography on a Superdex 75 prep grade gel filtration column (GE Healthcare, Piscataway, N.J.) pre-equilibrated in 50 mM Hepes pH 7.5, 150 mM NaCl. Active fractions were pooled concentrated, quantitated by BCA protein determination (Thermo Scientific, Rockford, Ill.), dialyzed into PBS and frozen at −80° C. in 20% glycerol until use.
(§2) An equal volume of diluted enzyme stock was added, and the plates were incubated at 37° C. for 15 min. Nitrocefin was used as substrate for p99 AmpC, VIM-2 and OXA-1 and dispensed into each well at a final concentration of 100 μM. Absorbance at 486 nm was immediately monitored for 10 min using a Biotek Powerwave XS2 microplate spectrophotometer using the GENS software package (Biotek Instruments, Winooski Vt.). In an analogous fashion, imipenem was used as substrate for Kpc-2 and Cefotaxime was used for SHV-5, while changes in absorbance upon hydrolysis of the β-lactam ring were monitored at 300 nm and 260 nm respectively in UV-transparent 96-well microtiter assay plates. Maximum rates of hydrolysis were compared to those in control wells (without inhibitors), and percentages of enzyme inhibition were calculated for each concentration of inhibitor. The concentration of inhibitor needed to reduce the initial rate of hydrolysis of substrate by 50% (IC50) was calculated as the residual activity of β-lactamase at 486 nm using GraFit version 7 kinetics software package (Erithacus Software, Surrey, UK).
(§3) Using the methodology described above, examples of the current invention were evaluated for their ability to inhibit β-lactamase enzymes from all four Ambler classifications (A through D). […] NT=Not tested.

KPC-2 = target: T2, KPC-2 (Klebsiella pneumoniae, UniProt Q9F663); assay: β-lactamase enzyme inhibition, KPC-2; conditions: substrate imipenem, 300 nm; read-out: Class A KPC-2 IC50
T2 construct: made in house; host or cells: E. coli BL21(DE3)
Experimental: as §1, §2, §3

VIM-2 = target: T3, VIM-2 (Escherichia coli, UniProt Q5U7L7); assay: β-lactamase enzyme inhibition, VIM-2; conditions: substrate Nitrocefin 100 μM, 486 nm; read-out: Class B VIM-2 IC50
T3 construct: made in house; host or cells: E. coli BL21(DE3)
Experimental: For Vim-2 metallo β-lactamase, the procedure was identical with the following exceptions, first the protein was not pH adjusted to pH 5 with 50 mM sodium acetate, second, the chromatography step was changed to a 5 ml Q sepharose anion exchange column pre-equilibrated with 50 mM Hepes pH 7.5, and elution of the protein was achieved by a linear gradient of NaCl (0-600 mM). Finally, the VIM-2 purification required a second run (3rd step) on the Q sepharose anion exchange column to achieve acceptable purity (>90%).
as §2, §3

p99 AmpC = target: T4, p99 AmpC (Enterobacter cloacae, UniProt P05364); assay: β-lactamase enzyme inhibition, p99 AmpC
T4 construct: made in house; host or cells: E. coli BL21(DE3)
Experimental: as §1, §2, §3

OXA-1 = target: T5, OXA-1 (Escherichia coli, UniProt P13661); assay: β-lactamase enzyme inhibition, OXA-1; conditions: substrate Nitrocefin 100 μM, 486 nm; read-out: Class D OXA-1 IC50
T5 construct: made in house; host or cells: E. coli BL21(DE3)
Experimental: as §1, §2, §3

Row | SMILES | IC50 (SHV-5) [nM] | IC50 (KPC-2) [nM] | IC50 (VIM-2) [nM] | IC50 (p99 AmpC) [nM] | IC50 (OXA-1) [nM]
1 | N[C@H]1CC(CC(=O)N[C@H]2Cc3cccc(C(=O)O)c3OB2O)C[C@@H]1N [Example 37] | 1000 to 10000 | < 100 | 100 to 1000 | < 100 | < 100
2 | CC(NC(=O)C1C[C@H](N)[C@@H](N)C1)C(=O)N[C@H]1Cc2cccc(C(=O)O)c2OB1O (stereo partly drawn) [Example 38] | < 100 | 100 to 1000 | 100 to 1000 | < 100 | 100 to 1000
3 | O=C(C[C@H]1CC[C@H](NCc2nccs2)CC1)N[C@H]1Cc2cccc(C(=O)O)c2OB1O [Example 39] | < 100 | < 100 | 1000 to 10000 | < 100 | < 100
4 | O=C(CC1CCC(N2CCOCC2)CC1)N[C@H]1Cc2cccc(C(=O)O)c2OB1O (stereo partly drawn) [Example 40, (R)-2-hydroxy-3-(2-(4-morpholinocyclohexyl)acetamido)-3,4-dihydro-2H-benzo[e][1,2]oxaborinine-8-carboxylic acid] | 100 to 1000 | < 100 | < 100 | < 100 | < 100
5 | N[C@@H](C(=O)N[C@H]1Cc2cccc(C(=O)O)c2OB1O)C1CCCCC1 [Example 42, (R)-3-((R)-2-amino-2-cyclohexylacetamido)-2-hydroxy-3,4-dihydro-2H-benzo[e][1,2]oxaborinine-8-carboxylic acid] | 100 to 1000 | < 100 | 1000 to 10000 | < 100 | 100 to 1000
6 | NCCNC1CCC(O)(CC(=O)N[C@H]2Cc3cccc(C(=O)O)c3OB2O)CC1 (stereo partly drawn) [Example 43, 3-{2-[4-(2-Amino-ethylamino)-1-hydroxy-cyclohexyl]-acetylamino}-2-hydroxy-3,4-dihydro-2H-benzo[e][1,2]oxaborinine-8-carboxylic acid] | < 100 | < 100 | < 100 | < 100 | < 100
7 | NC1CCC(O)(CC(=O)N[C@H]2Cc3cccc(C(=O)O)c3OB2O)CC1 (stereo partly drawn) [Example 44, 3-[2-(4-Amino-1-hydroxy-cyclohexyl)-acetylamino]-2-hydroxy-3,4-dihydro-2H-benzo[e][1,2]oxaborinine-8-carboxylic acid] | 100 to 1000 | 100 to 1000 | 1000 to 10000 | 100 to 1000 | 100 to 1000
8 | N[C@H]1CC[C@H](NCC(=O)N[C@H]2Cc3cccc(C(=O)O)c3OB2O)CC1 [Example 45, 3-[2-(4-Amino-cyclohexylamino)-acetylamino]-2-hydroxy-3,4-dihydro-2H-benzo[e][1,2]oxaborinine-8-carboxylic acid] | < 100 | < 100 | 1000 to 10000 | < 100 | 100 to 1000
9 | NCCN[C@H]1CC[C@@H](CC(=O)N[C@H]2Cc3cccc(C(=O)O)c3OB2O)CC1 [Example 46, (R)-3-(2-(cis-4-(2-aminoethylamino)cyclohexyl)acetamido)-2-hydroxy-3,4-dihydro-2H-benzo[e][1,2]oxaborinine-8-carboxylic acid] | 100 to 1000 | < 100 | 100 to 1000 | < 100 | < 100
10 | O=C(C[C@H]1CC[C@H](NCCNc2ccccn2)CC1)N[C@H]1Cc2cccc(C(=O)O)c2OB1O [Example 48, (R)-2-hydroxy-3-(2-(trans-4-(2-(pyridin-2-ylamino)ethylamino)cyclohexyl)acetamido)-3,4-dihydro-2H-benzo[e][1,2]oxaborinine-8-carboxylic acid] | < 100 | < 100 | 100 to 1000 | < 100 | < 100
11 | CS(=O)(=O)NCCN[C@H]1CC[C@H](CC(=O)N[C@H]2Cc3cccc(C(=O)O)c3OB2O)CC1 [Example 49, (R)-2-hydroxy-3-(2-(trans-4-(2-(methylsulfonamido)ethylamino)cyclohexyl)acetamido)-3,4-dihydro-2H-benzo[e][1,2]oxaborinine-8-carboxylic acid] | < 100 | < 100 | 100 to 1000 | < 100 | < 100
12 | NCCN[C@H]1CC[C@H](CC(=O)N[C@@H]2Cc3cccc(C(=O)O)c3OB2O)CC1 [Example 50, (S)-3-(2-(trans-4-(2-aminoethylamino)cyclohexyl)acetamido)-2-hydroxy-3,4-dihydro-2H-benzo[e][1,2]oxaborinine-8-carboxylic acid] | 100 to 1000 | 100 to 1000 | 100 to 1000 | 100 to 1000 | 100 to 1000
13 | CNCCN[C@H]1CC[C@H](CC(=O)N[C@H]2Cc3cccc(C(=O)O)c3OB2O)CC1 [Example 51, (R)-2-hydroxy-3-(2-(trans-4-(2-(methylamino)ethylamino)cyclohexyl)acetamido)-3,4-dihydro-2H-benzo[e][1,2]oxaborinine-8-carboxylic acid] | < 100 | < 100 | < 100 | < 100 | < 100
14 | CN1CCN([C@H]2CC[C@H](CC(=O)N[C@H]3Cc4cccc(C(=O)O)c4OB3O)CC2)C1=N [Example 52, (R)-2-hydroxy-3-(2-(trans-4-(2-imino-3-methylimidazolidin-1-yl)cyclohexyl)acetamido)-3,4-dihydro-2H-benzo[e][1,2]oxaborinine-8-carboxylic acid] | < 100 | < 100 | 10000 to 100000 | < 100 | < 100
15 | C[C@H](N)CN[C@H]1CC[C@H](CC(=O)N[C@H]2Cc3cccc(C(=O)O)c3OB2O)CC1 [Example 53, (R)-3-(2-(trans-4-((S)-2-aminopropylamino)cyclohexyl)acetamido)-2-hydroxy-3,4-dihydro-2H-benzo[e][1,2]oxaborinine-8-carboxylic acid] | < 100 | < 100 | < 100 | < 100 | < 100
16 | COC(=O)NCCN[C@H]1CC[C@H](CC(=O)N[C@H]2Cc3cccc(C(=O)O)c3OB2O)CC1 [Example 54, (R)-2-hydroxy-3-(2-(trans-4-(2-(methoxycarbonylamino)ethylamino)cyclohexyl)acetamido)-3,4-dihydro-2H-benzo[e][1,2]oxaborinine-8-carboxylic acid] | < 100 | < 100 | 100 to 1000 | 100 to 1000 | < 100
17 | NCCNC1CC(CC(=O)N[C@H]2Cc3cccc(C(=O)O)c3OB2O)C1 (stereo partly drawn) [Example 55, (R)-3-(2-(3-(2-aminoethylamino)cyclobutyl)acetamido)-2-hydroxy-3,4-dihydro-2H-benzo[e][1,2]oxaborinine-8-carboxylic acid] | < 100 | < 100 | < 100 | < 100 | < 100
18 | NC1CC(CC(=O)N[C@H]2Cc3cccc(C(=O)O)c3OB2O)C1 (stereo partly drawn) [Example 56, (R)-3-(2-(3-aminocyclobutyl)acetamido)-2-hydroxy-3,4-dihydro-2H-benzo[e][1,2]oxaborinine-8-carboxylic acid] | 100 to 1000 | < 100 | 100 to 1000 | < 100 | < 100
